How the values were obtained:
[1] = target: T1, medaka Esr1 (mEsr1) (Oryzias latipes, UniProt P50241); test: cell-based; design: species or system Japanese medaka (Oryzias latipes)
T1 sequence (P50241 1-620): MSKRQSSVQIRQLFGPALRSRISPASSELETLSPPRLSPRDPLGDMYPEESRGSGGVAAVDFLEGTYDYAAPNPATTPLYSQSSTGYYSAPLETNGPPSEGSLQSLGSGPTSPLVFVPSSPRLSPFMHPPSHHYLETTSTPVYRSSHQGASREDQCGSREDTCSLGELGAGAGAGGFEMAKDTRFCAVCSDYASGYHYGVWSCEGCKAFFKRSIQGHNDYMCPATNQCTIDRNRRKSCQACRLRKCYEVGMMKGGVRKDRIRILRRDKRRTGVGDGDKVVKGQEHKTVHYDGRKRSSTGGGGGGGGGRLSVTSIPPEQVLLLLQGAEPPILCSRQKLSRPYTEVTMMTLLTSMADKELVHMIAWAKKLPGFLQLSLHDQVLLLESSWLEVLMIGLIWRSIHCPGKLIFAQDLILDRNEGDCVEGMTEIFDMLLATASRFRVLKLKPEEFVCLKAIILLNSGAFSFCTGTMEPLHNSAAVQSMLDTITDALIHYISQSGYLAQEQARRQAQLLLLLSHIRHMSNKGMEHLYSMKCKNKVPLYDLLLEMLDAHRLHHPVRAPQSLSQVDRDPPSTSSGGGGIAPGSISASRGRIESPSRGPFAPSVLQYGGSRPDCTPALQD

[2] = target: T1, medaka Esr1 (mEsr1); test: Medaka Esr1 reporter gene assay, antagonist assay; type: cell-based, Japanese medaka (Oryzias latipes); conditions: E2 spiked at 1.0 nM (B); MAC = 1.0 × 10^−5 M
[3] = target: T2, medaka ARβ (mArβ) (Oryzias latipes, UniProt D1MV73); test: Medaka ARβ reporter gene assay, agonist assay; type: cell-based, Japanese medaka (Oryzias latipes); conditions: MAC = 1.0 × 10^−5 M
T2 sequence (D1MV73 1-744): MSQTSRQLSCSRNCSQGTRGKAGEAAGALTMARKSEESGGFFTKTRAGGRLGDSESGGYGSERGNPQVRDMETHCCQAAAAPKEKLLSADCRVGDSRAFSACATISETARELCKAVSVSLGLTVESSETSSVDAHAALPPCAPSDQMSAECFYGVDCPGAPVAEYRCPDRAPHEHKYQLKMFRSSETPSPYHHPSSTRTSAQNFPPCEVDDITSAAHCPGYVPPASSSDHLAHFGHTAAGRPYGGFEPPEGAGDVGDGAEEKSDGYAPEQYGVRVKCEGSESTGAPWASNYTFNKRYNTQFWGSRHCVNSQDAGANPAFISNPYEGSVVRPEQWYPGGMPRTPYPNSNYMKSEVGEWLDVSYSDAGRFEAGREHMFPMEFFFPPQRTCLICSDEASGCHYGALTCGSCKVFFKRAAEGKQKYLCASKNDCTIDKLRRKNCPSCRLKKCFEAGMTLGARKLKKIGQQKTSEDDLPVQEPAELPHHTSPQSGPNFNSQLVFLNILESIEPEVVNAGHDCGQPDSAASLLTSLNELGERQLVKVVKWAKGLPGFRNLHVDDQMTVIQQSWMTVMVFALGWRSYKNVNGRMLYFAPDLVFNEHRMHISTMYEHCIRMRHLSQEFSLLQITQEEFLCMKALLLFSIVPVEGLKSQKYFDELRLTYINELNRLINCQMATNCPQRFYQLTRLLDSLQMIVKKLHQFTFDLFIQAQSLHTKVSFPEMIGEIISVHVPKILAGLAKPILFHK

[4] = target: T2, medaka ARβ (mArβ); test: Medaka ARβ reporter gene assay, antagonist assay; type: cell-based, Japanese medaka (Oryzias latipes)
[5] = tested on: Japanese medaka (Oryzias latipes); test: Fish Short‐Term Reproduction Assay; type: in vivo; conditions: for GSI Female / GSI Male / HSI Female / HSI Male / Length Female / Length Male / Weight Female / Weight Male: completion of exposure
[6] = 4.67 mg/L measured, 21 d, sig. ↑ vs control
[7] = measured concentration 0.155 mg/L
[8] = measured concentration 0.826 mg/L
[9] = measured concentration 4.67 mg/L

## CC(C)(c1ccc(O)cc1)c1ccc(O)cc1 [BPA, Bisphenol A]
[1]
  EC50: 86 nM
[1]; mode of action in which EC50 or PC10 was obtained in RGA
  In vitro positive: Esr: Esr
[2]
  Antagonistic activity: NE (MAC = 1.0 × 10^−5 M)^(B)
[3]
  Agonistic activity: NE (MAC = 1.0 × 10^−5 M)
[4]
  IC50: 7 µM
[4]; mode of action in which IC50 or IC30 was obtained in RGA
  In vitro positive: aAr: aAr
[4]; transcriptional activity on mArβ by 11KT
  Antagonistic activity on mArβ (in words): inhibitory potency
[5]; 0.155 mg/L measured, 21 d
  Fertility rate: 96 ± 2.1%
  Hepatic VTG, female: 435 ± 65 ng/mg‐liver
  Hepatic VTG, male: 0.5 ± 0.0 ng/mg‐liver
  Mortality: 17%
  Mortality, number of dead fish: 4
  Number of total eggs (per female per day): 14 ± 1.8
  SSC female (joint plates with papillary processes): 0 ± 0
  SSC male (joint plates with papillary processes): 74 ± 3.6
[5]; 0.826 mg/L measured, 21 d
  Fertility rate: 94 ± 1.9%
  Hepatic VTG, female: 768 ± 297 ng/mg‐liver
  Hepatic VTG, male: 0.5 ± 0.0 ng/mg‐liver
  Mortality: 8.3%
  Mortality, number of dead fish: 2
  Number of total eggs (per female per day): 14 ± 1.6
  SSC female (joint plates with papillary processes): 0 ± 0
  SSC male (joint plates with papillary processes): 71 ± 4.2
[5]; 4.67 mg/L measured, 21 d
  Hepatic VTG, female: 3,456 ng/mg‐liver
  SSC female (joint plates with papillary processes): 0 ± 0
  SSC male (joint plates with papillary processes): 76 ± 5.7
[5]; [6]
  Hepatic VTG, male: 2,804 ± 811 ng/mg‐liver
  Mortality: 71%
  Mortality, number of dead fish: 17
[5]; 4.67 mg/L measured, 21 d, sig. ↓ vs control
  Fertility rate: 59 ± 25%
[5]; 21 d
  Fecundity, number of total eggs (in words): statistically significant decrease
  LOEC, elevated hepatic VTG in males: 4.67 mg/L
[5]; LOEC on reproduction (fecundity and/or fertility)
  LOECREPRO: 4,670 μg/L
[5]; Oryzias latipes, 504 h, read-out: LOECmVTG
  minimal effective concentration: 4.67 µg/mL
[5]; at concentrations that did not affect number of total eggs
  Fertility rate (in words): significant decrease
[5]; lowest observed effect concentration on mortality
  LOECTOX: 4,670 μg/L
[5]; [7]
  GSI Female: 6.8 ± 0.5%
  GSI Male: 0.91 ± 0.13%
  HSI Female: 3.4 ± 0.46%
  HSI Male: 2.1 ± 0.40%
  Length Female: 31.7 ± 0.9 mm
  Length Male: 33.2 ± 0.9 mm
  Weight Female: 313 ± 23 mg
  Weight Male: 290 ± 23 mg
[5]; [8]
  GSI Female: 6.0 ± 1.0%
  GSI Male: 0.80 ± 0.23%
  HSI Female: 3.3 ± 0.75%
  HSI Male: 2.3 ± 0.45%
  Length Female: 32.0 ± 0.9 mm
  Length Male: 32.5 ± 0.9 mm
  Weight Female: 342 ± 20 mg
  Weight Male: 310 ± 10 mg
[5]; [9]
  GSI Female: 2.3%
  GSI Male: 0.77 ± 0.23%
  HSI Female: 4.8%
  HSI Male: 3.4 ± 1.15%
  Length Female: 30.6 mm
  Length Male: 33.6 ± 1.9 mm
  Weight Female: 281 mg
  Weight Male: 370 ± 72 mg
